Source: PubChem BioAssay (NCI)
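Growth conditions: 96-well plates. Treatment: test compound, 48 hours, 5 concentrations. Analysis: linear interpolation between bracketing concentrations; unreached endpoints set to highest concentration. TGI marks complete inhibition of growth.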

What was measured:
Test in all cases: NCI-60 cell line screen, 48 h
SNB-78 CNS = system: SNB-78 CNS
SN12C renal = system: SN12C renal
SNB-75 CNS = system: SNB-75 CNS
LXFL 529 NSCLC = system: LXFL 529 NSCLC
RXF 393 renal = system: RXF 393 renal
OVCAR-3 ovarian = system: OVCAR-3 ovarian
KM20L2 colon = system: KM20L2 colon
NCI-H226 lung = system: NCI-H226 lung
OVCAR-5 ovarian = system: OVCAR-5 ovarian
HCT-15 colon = system: HCT-15 colon
MDA-N = system: MDA-N
BT-549 breast = system: BT-549 breast

Compound | TGI (SNB-78 CNS) | TGI (SN12C renal) | TGI (SNB-75 CNS) | TGI (LXFL 529 NSCLC) | TGI (RXF 393 renal) | TGI (OVCAR-3 ovarian) | TGI (KM20L2 colon) | TGI (NCI-H226 lung) | TGI (OVCAR-5 ovarian) | TGI (HCT-15 colon) | TGI (MDA-N) | TGI (BT-549 breast)
O=C(CSc1nc(-c2ccccc2)c(-c2ccccc2)[nH]1)N/N=C/c1ccc(O)cc1 | > 100 µM | 66.7 µM | 52.7 µM | 99.5 µM | 61.4 µM | 48.4 µM | 55.8 µM | 82 µM |  |  |  | 
COc1ccc([C@@H]2CC(=O)N2)cc1 | > 100 µM | > 100 µM | > 100 µM | > 100 µM | > 100 µM |  | > 100 µM | > 100 µM | > 100 µM | > 100 µM |  | 
O=C(c1ccccc1)C1S(=O)(=O)OCCOS1(=O)=O | > 100 µM | > 100 µM | > 100 µM | > 100 µM |  | > 100 µM |  |  |  |  |  | 
Cc1cc2c(C)n(Cc3ccccc3Cl)nc2c(C(=O)O)c1C | > 100 µM | > 100 µM | > 100 µM | > 100 µM | > 100 µM | > 100 µM | > 100 µM | > 100 µM | > 100 µM | > 100 µM |  | 
O=C1N2Cc3c4ccc5c3CN3C(=O)N6Cc7c(ccc(c7CN1C6(c1ccccc1)C23c1ccccc1)OCCOCCNCCOCCO4)OCCOCCNCCOCCO5 (configuration not stated) | > 100 µM | 89.1 µM | > 100 µM | 53.7 µM | > 100 µM | > 100 µM | > 100 µM | > 100 µM | > 100 µM | 91.3 µM |  | 
COCN1COCN=C1NC#N | > 100 µM | > 100 µM | > 100 µM | > 100 µM | > 100 µM | > 100 µM | > 100 µM | > 100 µM | > 100 µM | > 100 µM |  | 
NC1=NS(=O)(=O)Nc2nc(-c3ccccc3)[nH]c21 | > 100 µM | > 100 µM | > 100 µM | > 100 µM | > 100 µM | > 100 µM | > 100 µM | > 100 µM | > 100 µM | > 100 µM |  | 
O=C(CC1OC(O)C(Cl)=C1Cl)c1cccnc1 (configuration not stated) | > 100 µM | > 100 µM | > 100 µM | > 100 µM | > 100 µM | > 100 µM | > 100 µM | > 100 µM | > 100 µM | > 56.8 µM |  | 
C=C1C(=O)O[C@@H]2[C@H](O)[C@@H](C)[C@@H]3C=CC(=O)[C@@]3(C)[C@@H](OC(=O)/C(C)=C/C)[C@H]12 | 8.03 µM | 2.52 µM | 3.63 µM |  | 1.14 µM | 1.69 µM | 5.54 µM | 8.97 µM | 8.31 µM | 1.06 µM |  | 
CC(C)(C)OC(=O)CN1CCNCCN(CC(=O)OC(C)(C)C)CCNCC1 |  | > 100 µM | > 100 µM |  | > 100 µM | > 100 µM |  | > 100 µM | > 100 µM | > 100 µM | > 100 µM | > 100 µM
O=C1CC(c2ccccc2)=Nc2ccccc2N1 | > 100 µM | > 100 µM | > 100 µM | > 100 µM | > 100 µM | > 100 µM | > 100 µM | > 100 µM | > 100 µM | > 100 µM |  | 
C[C@@H]1C(=O)C[C@H]2C(C)(C)CCC[C@]2(C)[C@@]1(O)CCc1ccoc1 |  | > 100 µM | > 100 µM |  | > 100 µM | > 100 µM |  | > 100 µM | > 100 µM | > 100 µM | > 100 µM | > 100 µM
Cn1ncc2c(Cl)ncnc21 |  | > 100 µM | > 100 µM |  | > 100 µM | > 100 µM |  | > 100 µM | > 100 µM | > 100 µM | > 100 µM | > 100 µM
Clc1cccc(NN=Nc2ccc(-c3nc4ccccc4s3)cc2)c1 |  | 62.2 µM | 66.1 µM |  | 82.8 µM | > 100 µM |  | > 100 µM | > 100 µM | > 100 µM | 80.1 µM | > 100 µM
